Experimental data: patent US20160279166A1, “TREATING AGENT AND TREATING METHOD FOR THE EXAMINATION OR OPERATION OF THE LARGE INTESTINE” (KYOWA CHEMICAL INDUSTRY CO., LTD., priority 2013, published 2016)

How the values were obtained:
rats [1] = experiment: Defecation state (soft stool) of rats 9 hours after administration; format: in vivo, rat; conditions: oral, after 9 hours, magnesium oxide 700 mg/kg, fiber powders 4500 mg/kg, fiber liquid 4500 mg/kg as administered
Description: (§1) Magnesium oxide particles and water-soluble dietary fibers were administered to rats for animal testing to check the defecation states after 9 hours. Laparotomy was made on the rats after 9 hours to measure the amount of remaining feces, the amount of dry feces and the content of water in the intestinal tract.
(§2) A preparation containing 1.4 g of magnesium oxide particles and 9 g of water-soluble dietary fiber powders was used to administer 700 mg/kg of the magnesium oxide particles and 4,500 mg/kg of the water-soluble dietary fiber powders to rats. The magnesium oxide in use was magnesium oxide particles having an average secondary particle diameter specified in the present invention. The water-soluble dietary fibers in use were reduced indigestible dextrin specified in the present invention.
The total suspension liquid doses to test groups were fixed. […] The defecation state was checked after 9 hours, and the amount of remaining feces, the amount of dry feces and the content of water in the large intestine of each rat were measured to evaluate the effects on the properties of feces of the magnesium oxide particles and the water-soluble dietary fibers.

large intestine = experiment: CT examination of the large intestine: evaluation of remaining feces, remaining water and overall evaluation after pretreatment; format: in vivo, human; conditions: conclusion from CT overall evaluation
Description: The large intestine is divided into 6 parts in order to evaluate remaining feces and remaining water in each part in five stages from an image of the large intestine at a supine position (SU) and a lateral recumbent position (PR) obtained from CT examination. Further, overall evaluation was carried out from the obtained evaluation results.
The large intestine is divided into the following six parts.
C: appendix A: ascending colon T: transverse colon D: descending colon S: sigmoid colon R: rectum
The remaining feces were evaluated in five stages according to the existence of movement and a shape change.
0: difficult to evaluate 1: sticks to a mucous membrane 2: no movement and no shape change 3: moved and changed in shape 4: almost no remaining feces
The remaining water was evaluated in the following five stages according to its proportion to the circumference.
0: 4/4 of the circumference is under water (complete submersion). 1: 3/4 of the circumference is under water 2: 2/4 of the circumference is under water 3: 1/4 of the circumference is under water (submersion of semilunar pleat) 4: almost no submersion
The overall evaluation was made in the following five stages.
0: not useful 1: it cannot be said whether it is useful or not 2: rather useful 3: useful 4: very useful
3 g of MgO for each examination was divided in two portions to be administered as the pretreatment of the examination. […]

rats [2] = experiment: Laparotomy of rats after 9 hours: remaining feces, dry feces and water content in the large intestinal tract; format: in vivo, rat
Description: as §1, §2
The total suspension liquid doses to test groups were fixed. When the magnesium oxide particles and a mixture of the magnesium oxide particles and the water-soluble dietary fiber powders were administered, 5 ml/kg of them was administered, and when they were not administered, 0.05% CMC-NA was administered. When the water-soluble dietary fiber liquid was administered, 10 ml/kg of it was administered and when the water-soluble dietary fiber liquid was not administered, 10 ml/kg of water was administered. The defecation state was checked after 9 hours, and the amount of remaining feces, the amount of dry feces and the content of water in the large intestine of each rat were measured to evaluate the effects on the properties of feces of the magnesium oxide particles and the water-soluble dietary fibers.

rats [3] = experiment: Defecation state (diarrhea) of rats after 9 hours with varied amount of ingested water; format: in vivo, rat; conditions: oral, magnesium oxide 700 mg/kg
Description: Magnesium oxide particles were administered to rats for animal testing to check the defecation states after 9 hours. At this point, the amount of water to be taken was increased and decreased to evaluate the effect on laxative action of the amount of water to be taken.
A preparation containing magnesium oxide as an effective component and crystalline cellulose, croscarmellose and calcium stearate as additives was used. […] The magnesium oxide in use is magnesium oxide particles having an average secondary particle diameter specified in the present invention.
The defecation state of each test group was checked after 9 hours so as to calculate the water-like feces excretion rate and evaluate the effect on the properties of feces of the amount of ingested water when the magnesium oxide particles were administered.

[4] = large intestinal tract after 9 hours, magnesium oxide 700 mg/kg, fiber powders 4500 mg/kg, fiber liquid 4500 mg/kg as administered

## [O]=[Mg] [Magnesium oxide particles, magnesium oxide]
Rats [1]
  Proportion having soft stool (number of rats having soft stool/number of test rats): 3/5
Large intestine
  effectiveness as a treating agent for the examination or operation of the large intestine (in words): extremely effective
Rats [2]; after 9 hours
  amount of dry feces (in words): reduced
  content of water (in words): increased
Rats [2]; [4]
  Amount of dry feces: 12%
  Amount of remaining feces: 3.69 g
  Content of water: 88%
Rats [3]; water 1 mL/kg
  Proportion causing diarrhea (number of rats suffering from diarrhea/number of test rats): 3/5
Rats [3]; water 10 mL/kg
  Proportion causing diarrhea (number of rats suffering from diarrhea/number of test rats): 4/5
Rats [3]; water 35 mL/kg
  Proportion causing diarrhea (number of rats suffering from diarrhea/number of test rats): 5/5
